Reference: patent US20140037661A1, “Wheat Antigens and Peptides for Diagnosis of Wheat Induced Hypersensitivity” (PHADIA AB, priority 2011, published 2014)

Test system: serum-IgA from CD patients
Assay: IgA reactivity ELISA to synthetic GG1 peptides
Assay type: binding, human
Conditions: 5 μg/ml coated; n=8 CD, 2 CD on gluten free diet, 3 healthy controls; FIG. 16
Description: ELISA plates were coated with 100 ul of 5 μg/ml of the 19 overlapping peptides, rGG1, alpha-gliadin peptide p56-75 and deamidated alpha gliadin peptide p56-75 (Q65E) and probed with serum-IgA from CD patients, CD patients on gluten free diet and healthy controls and detected using mouse anti-human IgA1/A2 and sheep anti-mouse IgG-HRP labelled antibody. Human serum albumin (HSA) was used as control (n=8 CD patients, 2 CD patients on gluten free diet and 3 healthy controls). […] Each of the synthetic GG1 peptides no.

**Q.** “QVMRQQCCQQLAQIPQQLQCA (listed as Triticum aestivum) [compound 13]” was tested. Which “IgA reactivity of celiac disease patients' serum” value did it give?
**A.** specific IgA reactivity
